Experimental findings from BindingDB's records for doi:10.1016/j.bmc.2013.10.054 (Punjabi University, 2014) are described below.

The IC50 is the concentration that inhibits the measured activity by half.

The target of the test is T1, P2X purinoceptor 7 (Homo sapiens, UniProt Q99572).
T1 sequence (Q99572 whole entry): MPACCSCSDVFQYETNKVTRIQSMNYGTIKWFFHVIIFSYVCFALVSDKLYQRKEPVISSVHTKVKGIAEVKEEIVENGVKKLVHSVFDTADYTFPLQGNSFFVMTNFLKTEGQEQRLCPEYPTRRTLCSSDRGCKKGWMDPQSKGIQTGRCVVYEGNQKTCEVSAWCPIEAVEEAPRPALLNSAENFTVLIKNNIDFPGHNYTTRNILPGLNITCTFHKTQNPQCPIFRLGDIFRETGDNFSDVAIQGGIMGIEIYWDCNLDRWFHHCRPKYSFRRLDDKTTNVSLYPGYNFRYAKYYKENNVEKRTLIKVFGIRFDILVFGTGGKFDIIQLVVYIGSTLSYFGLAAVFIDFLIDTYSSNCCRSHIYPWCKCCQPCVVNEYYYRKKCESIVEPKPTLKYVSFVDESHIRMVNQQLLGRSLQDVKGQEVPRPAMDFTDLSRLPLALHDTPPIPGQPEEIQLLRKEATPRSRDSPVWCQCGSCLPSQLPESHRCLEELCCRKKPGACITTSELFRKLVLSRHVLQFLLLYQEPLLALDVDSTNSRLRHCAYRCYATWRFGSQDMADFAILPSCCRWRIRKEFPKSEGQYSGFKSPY
Briefly: Antagonist activity at P2X7 receptor (unknown origin).

For the compound `O=C(Cn1cc(O)n(-c2ccccc2)c1=O)NCc1ccc(F)cc1Cl`, the IC50 was under 1000 nM.
